Data on 34 compounds can be found in patent US9221822B2, “Thiazolopyrimidine modulators as immunosuppressive agents” (Katholieke Universiteit Leuven, K.U.Leuven R&D, priority 2009, dated 2015).

In the first test the test system is Human peripheral blood mononuclear cells (PBMCs) as Responder cells, RPMI 1788 Stimulator cells. The test can be described thus: Mixed Lymphocyte Reaction (MLR) test. It counts as cell-based. As to conditions: Homo sapiens, RPMI-1788, lowest concentration giving 50% inhibition of the MLR; 6 days coculture, 3H-thymidine incorporation. The protocol:
Human peripheral blood mononuclear cells (PBMCs) were isolated from buffy coats, obtained from healthy blood donors by Ficoll (Lymphoprep, Axis-Shield PoC AS, Oslo, Norway) density-gradient centrifugation. The cells at the Ficoll-plasma interface were washed three times and used as “Responder” cells. RPMI 1788 (ATCC, N^o CCL-156) cells were treated with mitomycin C (Kyowa, Nycomed, Brussel, Belgium) and used as “Stimulator” cells. Responder cells (0.12×10^6), Stimulator cells (0.045×10^6) and compounds (in different concentrations) were cocultured for 6 days in RPMI 1640 medium (BioWhittaker, Lonza, Belgium) supplemented with 10% fetal calf serum, 100 U/ml Geneticin (Gibco, LifeTechnologies, UK). Cells were cultured in triplicate in flat-bottomed 96-well microtiter tissue culture plates (TTP, Switzerland). After 5 days, cells were pulsed with 1 μCi of methyl-^3H thymidine (MP Biomedicals, USA), harvested 18 h later on glass filter paper and counted. Proliferation values were expressed as counts per minute (cpm), and converted to % inhibition with respect to a blank MLR test (identical but without added compound). […]
For orientation: Dividing cells build labelled thymidine or BrdU into new DNA.
Regarding `Nc1nc(SCc2ccccc2)c2nc(-c3ccc(F)cc3)sc2n1` [Example 28, 7-(benzylthio)-2-(4-fluorophenyl)thiazolo[5,4-d]pyrimidin-5-amine], the IC50 is more than 10000 nM.
Still for that read-out and setting: as for `COCCOc1nc(N)nc2sc(-c3ccc(F)cc3)nc12` [Example 29, 2-(4-fluorophenyl)-7-(2-methoxyethoxy)-thiazolo[5,4-d]pyrimidin-5-amine], the figure is more than 10000 nM; as for `CCOc1nc(N)nc2sc(-c3ccc(F)cc3)nc12` [Example 30, 7-ethoxy-2-(4-fluorophenyl)thiazolo[5,4-d]pyrimidin-5-amine], more than 10000 nM; as for `CCOc1nc(N)nc2sc(Cc3ccc(F)cc3)nc12` [Example 31, 7-ethoxy-2-(4-fluorobenzyl)thiazolo[5,4-d]pyrimidin-5-amine], 9700 nM.
`Nc1nc(N2CCOCC2)c2nc(-c3ccc(F)cc3)sc2n1` [Example 33, 2-(4-fluorophenyl)-7-morpholino-thiazolo[5,4-d]pyrimidin-5-amine] gave an IC50 of more than 10000 nM.
`Nc1nc(N2CCOCC2)c2nc(Cc3ccc(F)cc3)sc2n1` [Example 34, 2-(4-fluorobenzyl)-7-morpholino-thiazolo[5,4-d]pyrimidin-5-amine] had an IC50 of more than 10000 nM.
Regarding `Cc1cccc(N2CCN(c3nc(N)nc4sc(-c5ccc(F)cc5)nc34)CC2)c1` [Example 35, 2-(4-fluorophenyl)-7-(4-m-tolylpiperazin-1-yl)-thiazolo[5,4-d]pyrimidin-5-amine], the IC50 is more than 10000 nM.
With `Nc1nc(N2CCN(c3nccs3)CC2)c2nc(-c3ccc(F)cc3)sc2n1` [Example 36, 2-(4-fluorophenyl)-7-(4-(thiazol-2-yl)piperazin-1-yl)thiazolo[5,4-d]pyrimidin-5-amine], the IC50 is more than 10000 nM.
On the same count and under the same terms, as for `CCCCCN1CCN(c2nc(N)nc3sc(-c4ccc(F)cc4)nc23)CC1` [Example 37, 2-(4-fluorophenyl)-7-(4-pentylpiperazin-1-yl)thiazolo[5,4-d]pyrimidin-5-amine], the figure is more than 10000 nM; as for `Nc1nc(N2CCN(CC(=O)N3CCOCC3)CC2)c2nc(-c3ccc(F)cc3)sc2n1` [Example 38, 2-(4-(5-amino-2-(4-fluorophenyl)thiazolo[5,4-d]pyrimidin-7-yl)piperazin-1-yl)-1-morpholinoethanone], 4800 nM.
Compound `Nc1nc(N2CCN(Cc3ccccc3)CC2)c2nc(-c3ccc(F)cc3)sc2n1` [Example 39, 7-(4-benzylpiperazin-1-yl)-2-(4-fluorophenyl)thiazolo[5,4-d]pyrimidin-5-amine] came in with an IC50 of more than 10000 nM.
On the same count and under the same terms, as for `Nc1nc(N2CCN(C(=O)OCc3ccccc3)CC2)c2nc(-c3ccc(F)cc3)sc2n1` [Example 40, benzyl-4-(5-amino-2-(4-fluorophenyl)thiazolo[5,4-d]pyrimidin-7-yl)piperazine-1-carboxylate], the figure is 4900 nM.
`Cc1ccc(NC(=O)N2CCN(c3nc(N)nc4sc(-c5ccc(F)cc5)nc34)CC2)cc1` [Example 42, 4-(5-amino-2-(4-fluorophenyl)-thiazolo[5,4-d]pyrimidin-7-yl)-N-p-tolylpiperazine-1-carboxamide] yielded a half-inhibitory concentration (IC50) of 700 nM.
In the case of `Cc1cccc(NC(=O)N2CCN(c3nc(N)nc4sc(-c5ccc(F)cc5)nc34)CC2)c1` [Example 43, 4-(5-amino-2-(4-fluorophenyl)thiazolo[5,4-d]pyrimidin-7-yl)-N-m-tolylpiperazine-1-carboxamide], it took 300 nM to reach half-maximal inhibition (IC50). This IC50 is about 2.3-fold lower than that of the compound before.
As for `Cc1cccc(NC(=O)N2CCN(c3nc(N)nc4sc(Cc5ccc(F)cc5)nc34)CC2)c1` [Example 44, 4-(5-amino-2-(4-fluorobenzyl)thiazolo[5,4-d]pyrimidin-7-yl)-N-m-tolylpiperazine-1-carboxamide], half-maximal inhibition (IC50) was put at 400 nM.
Turning to `Nc1nc(N2CCN(C(=O)COc3ccc(Cl)cc3)CC2)c2nc(-c3ccc(F)cc3)sc2n1` [Example 45, 1-(4-(5-amino-2-(4-fluorophenyl)thiazolo[5,4-d]pyrimidin-7-yl)piperazin-1-yl)-2-(4-chlorophenoxy)ethanone], half-maximal inhibition (IC50) was put at 300 nM.
In the case of `Nc1nc(N2CCN(C(=O)COc3ccc(Cl)cc3)CC2)c2nc(Cc3ccc(F)cc3)sc2n1` [Example 46, 1-(4-(5-amino-2-(4-fluorobenzyl)thiazolo[5,4-d]pyrimidin-7-yl)piperazin-1-yl)-2-(4-chlorophenoxy)ethanone], the midpoint of inhibition, the IC50, lay at 700 nM.
On the same count and under the same terms, as for `Nc1nc(N2CCN(C(=O)COc3ccc(Cl)cc3)CC2)c2nc(CCOc3ccc(F)cc3)sc2n1` [Example 48, 1-(4-(5-amino-2-(2-(4-fluorophenoxy)ethyl)thiazolo[5,4-d]pyrimidin-7-yl)piperazin-1-yl)-2-(4-chlorophenoxy)ethanone], the figure is 3540 nM; as for `Nc1nc(N2CCN(C(=O)COc3ccc(Cl)cc3)CC2)c2nc(CCc3ccc(F)cc3)sc2n1` [Example 49, 1-(4-(5-amino-2-(4-fluorophenethyl)-thiazolo[5,4-d]pyrimidin-7-yl)piperazin-1-yl)-2-(4-chlorophenoxy)ethanone], 4400 nM; as for `Nc1nc(N2CCN(C(=O)COc3ccc(Br)cc3)CC2)c2nc(CCc3ccc(F)cc3)sc2n1` [Example 52, 1-(4-(5-amino-2-(4-fluorophenethyl)thiazolo[5,4-d]pyrimidin-7-yl)piperazin-1-yl)-2-(4-bromophenoxy)ethanone], more than 10000 nM.
Regarding `CC(c1ccc(F)cc1)c1nc2c(N3CCN(C(=O)COc4ccc(Cl)cc4)CC3)nc(N)nc2s1` (stereo not shown) [Example 66, 1-(4-(5-amino-2-(1-(4-fluorophenyl)ethyl)thiazolo[5,4-d]pyrimidin-7-yl)piperazin-1-yl)-2-(4-chlorophenoxy)ethanone], the midpoint of inhibition, the IC50, lay at 4380 nM.
`Nc1nc(N2CCN(C(=O)COc3ccc(Cl)cc3)CC2)c2nc(C3(c4ccccc4)CC3)sc2n1` [Example 114, 5-amino-7-[4-(4-chlorophenoxyacetyl)piperazin-1-yl]-2-(1-phenylcyclopropyl)thiazolo[5,4-d]pyrimidine] returned an IC50 of 1560 nM.
On the same count and under the same terms, as for `CSc1nc2c(N3CCN(C(=O)COc4ccc(Cl)cc4)CC3)nc(N)nc2s1` [Example 115, 5-amino-7-[4-(4-chlorophenoxyacetyl)piperazin-1-yl]-2-methylthio-thiazolo[5,4-d]pyrimidine], the figure is more than 10000 nM; as for `Nc1nc(N2CCN(C(=O)COc3ccc(Cl)cc3)CC2)c2nc(-c3ccc(Cl)c(Cl)c3)sc2n1` [Example 116, 5-amino-7-[4-(4-chlorophenoxyacetyl)piperazin-1-yl]-2-(3,4-dichlorophenyl)thiazolo[5,4-d]pyrimidine], 5290 nM; as for `Nc1nc(N2CCN(C(=O)COc3ccc(Cl)cc3)CC2)c2nc(C3(c4ccc(Cl)cc4)CC3)sc2n1` [Example 117, 5-amino-7-[4-(4-chlorophenoxyacetyl)piperazin-1-yl]-2-(1-(4-chlorophenyl)cyclopropyl)thiazolo[5,4-d]pyrimidine], 2510 nM.
Consider `Nc1nc(N2CCN(C(=O)COc3ccc(Cl)cc3)CC2)c2nc(CCc3ccccc3)sc2n1` [Example 118, 5-amino-7-[4-(4-chlorophenoxyacetyl)piperazin-1-yl]-2-(2-phenylethyl)thiazolo[5,4-d]pyrimidine], for which the IC50 is 860 nM.
Still for that read-out and setting: as for `Nc1nc(N2CCN(C(=O)COc3ccc(Cl)cc3)CC2)c2nc(C3CC3)sc2n1` [Example 119, 5-amino-2-cyclopropyl-7-[4-(4-chlorophenoxyacetyl)piperazin-1-yl]-thiazolo[5,4-d]pyrimidine], the figure is 600 nM; as for `Nc1nc(N2CCN(C(=O)COc3ccc(Cl)cc3)CC2)c2nc(C3CCCCC3)sc2n1` [Example 120, 5-amino-7-[4-(4-chlorophenoxyacetyl)piperazin-1-yl]-2-cyclohexylthiazolo[5,4-d]pyrimidine], 830 nM; as for `Nc1nc(N2CCN(C(=O)COc3ccc(Cl)cc3)CC2)c2nc(Cc3ccc(Cl)cc3)sc2n1` [Example 122, 5-amino-7-[4-(4-chlorophenoxyacetyl)piperazin-1-yl]-2-(4-chlorophenylmethyl)thiazolo[5,4-d]pyrimidine], more than 10000 nM.
As for `Nc1nc(N2CCN(C(=O)COc3ccc(Cl)cc3)CC2)c2nc(-c3ccc(Cl)cc3)sc2n1` [Example 123, 5-amino-7-[4-(4-chlorophenoxyacetyl)piperazin-1-yl]-2-(4-chlorophenyl)thiazolo[5,4-d]pyrimidine], half-maximal inhibition (IC50) was put at 260 nM.
On to `COc1cccc(-c2nc3c(N4CCN(C(=O)COc5ccc(Cl)cc5)CC4)nc(N)nc3s2)c1` [Example 124, 5-amino-7-[4-(4-chlorophenoxyacetyl)piperazin-1-yl]-2-(3-methoxyphenyl)thiazolo[5,4-d]pyrimidine], for which the IC50 was 120 nM.
Still for that read-out and setting: as for `C[S+]([O-])c1nc2c(N3CCN(C(=O)COc4ccc(Cl)cc4)CC3)nc(N)nc2s1` (stereo not shown) [Example 126, 5-amino-7-[4-(4-chlorophenoxyacetyl)piperazin-1-yl]-2-methylsulfinyl-thiazolo[5,4-d]pyrimidine], the figure is 2650 nM.

Still in this test, the particulars now being: lowest concentration giving 50% inhibition of the MLR; 6 days coculture, 3H-thymidine incorporation.
With `COCCCNc1nc(N)nc2sc(-c3ccc(F)cc3)nc12` [Example 32, 2-(4-fluorophenyl)-N-7-(3-methoxypropyl)thiazolo[5,4-d]pyrimidine-5,7-diamine], the IC50 was more than 10000 nM.
Regarding `Nc1nc(N2CCN(C(=O)COc3ccc(Cl)cc3)CC2)c2nc(-c3ccc[n+]([O-])c3)sc2n1` [Example 121b, 5-amino-7-[4-(4-chlorophenoxyacetyl)piperazin-1-yl]-2-(N-oxopyridine-3-yl)thiazolo[5,4-d]pyrimidine], half-maximal inhibition (IC50) required 830 nM.

The term IC50 denotes the midpoint of a concentration-inhibition curve. Read a low IC50 as greater potency.
